Tests used:
adult subjects with LOPD = assay: Study ATB200-07 (OLE): MMT lower extremity
From the text: Analysis populations presented in this summary are 1) the OLE-ES Population (all subjects who satisfied the eligibility requirements (based on the inclusion and exclusion criteria) and entered Study ATB200-07 and 2) the OLE-FAS Population (all subjects who entered the OLE Study ATB200-07 who had both a valid ATB200-07 baseline and at least 1 post-baseline assessment for at least 1 of the 6 main efficacy endpoints [6MWD, sitting % predicted FVC, MMT-lower extremities, PROMIS-Physical Function, PROMIS-Fatigue, and GSGC]).

[1] = test system: adult subjects with Pompe disease; assay: Pooled Studies ATB200-02/03/07 (Pool 2): 6MWD by exposure interval
Experimental: The pooled efficacy analyses presented within this section include the outlier (Pool 2). […] Pooled efficacy analyses excluding the outlier subject (Pool 2A) were also performed.
No long-term data for the alglucosidase alfa/placebo group are available, as all subjects switched to cipaglucosidase alfa/miglustat in Study ATB200-07.
Efficacy data from the 3 adult Pompe disease clinical studies were pooled and analyzed to further support the long-term efficacy of cipaglucosidase alfa/miglustat in adult subjects. Data from non-ambulatory subjects (Study ATB200-02 Cohort 2) were not included in the pool as there was little overlap of efficacy endpoints for this group with the various ambulatory groups, such as 6MWD and lower MMT.
The 3 adult Pompe disease clinical studies were pooled as follows: • The cipaglucosidase alfa/miglustat treatment group consists of: • All ambulatory subjects in Study ATB200-02 (Cohorts 1, 3, and 4), • All subjects randomized to the cipaglucosidase alfa/miglustat treatment group in Study ATB200-03, and • All subjects enrolled in Study ATB200-07. • The alglucosidase alfa/placebo treatment group consists of: • All subjects randomized to the ERT treatment group in Study ATB200-03.

[2] = test system: adult subjects with late-onset Pompe disease (LOPD); assay: Study ATB200-03 (PROPEL): PROMIS-Physical Function; type: in vivo, human; conditions: for CHG to Week 52 in PROMIS-Physical Function total score, LS Mean / CHG to Week 52 in PROMIS-Physical Function total score, LS Mean Treatment Difference: MMRM; for CHG to Week 52 in PROMIS-Physical Function total score, LS Mean: actual time point of assessments; for PROMIS-Physical Function Short Form 20a total score CHG, LS means (SE) / PROMIS-Physical Function Short Form 20a total score CHG, Difference of LS means (SE) (cipaglucosidase alfa/miglustat − alglucosidase alfa/placebo): Week 52; for CHG to Week 52 in PROMIS-Physical Function total score, LS Mean Treatment Difference: actual time point
Experimental: The test for the primary endpoint was conducted first at the 1-sided 0.025 significance level, and if significant, the ordered key secondary endpoints were similarly tested at the same significance level. The statistical significance of the key secondary endpoints was interpreted following a hierarchical testing order, each at the 1-sided alpha level of 0.025. […] Primary analyses of efficacy were performed using the mixed-effect model for repeated measures (MMRM) for 6MWD in Intent-to-treat Observed Population (ITT) that includes all available, observed data without any missing data imputation (ITT-OBS) and analysis of covariance (ANCOVA) for all other endpoints in the Intent-to-Treat-Last Observation Carried Forward (ITT-LOCF) Population. A nonparametric randomization based ANCOVA was specified as the first sensitivity analysis for 6MWD and FVC. […] For the purposes of data presentation in this document, 2-sided p-values are reported hereafter, except as otherwise noted.

[3] = exposure interval >15 to ≤24 months, Pool 2, including the outlier
[4] = exposure interval >24 months, Pool 2, including the outlier
[5] = exposure interval ≤15 months, Pool 2, including the outlier
[6] = Week 52-LOCF, ERT-experienced Population
[7] = Week 52-LOCF, ERT-naïve Subjects excluding Subject 4005-2511
[8] = Week 52-LOCF, ITT excluding Subject 4005-2511

## ATB200/miglustat: two-component therapy: cipaglucosidase alfa (ATB200) administered in conjunction with miglustat (AT2221), a stabilizer of cipaglucosidase alfa
Adult subjects with LOPD; Study ATB200-03 baseline, OLE-ES Population excluding Subject 4005-2511
  MMT (lower extremity score), mean BSL: 27.9
Adult subjects with LOPD; change from ATB200-03 baseline at Week 52, OLE-ES excluding Subject 4005-2511
  MMT (lower extremity score), mean 52-wk CFB: 1.6
Adult subjects with LOPD; change from ATB200-03 baseline at Week 104, alglucosidase alfa/placebo group switched to cipaglucosidase alfa/miglustat at Week 52, OLE-ES excluding Subject 4005-2511
  MMT (lower extremity score), mean 104-wk CFB: 1.8
Adult subjects with LOPD; treated through Studies ATB200-03 and ATB200-07
  other main endpoints (MMT lower extremity, PROMIS-Physical Function, PROMIS-Fatigue, GSGC) course to Week 104: either improved or remained stable through Study ATB200-03, and then stabilized through Study ATB200-07
[1]; after at least 24 months (n=70)
  mean (SD) improvement in % predicted 6MWD: 3.3 (10.84)
[1]; exposure >15 to ≤24 months (n=108)
  mean (SD) improvement in 6MWD: 17.7 (55.61) meters
[1]; exposure >24 months (n=70)
  mean (SD) improvement in 6MWD: 9.7 (67.13) meters
[1]; [3]
  6MWD Baseline, Mean: 366.33 meters
  6MWD Baseline, Median: 369.25 meters
  6MWD change from baseline, mean: 17.67 meters
  6MWD change from baseline, median: 11.75 meters
[1]; [4]
  6MWD Baseline, Mean: 367.77 meters
  6MWD Baseline, Median: 376.43 meters
  6MWD change from baseline, mean: 9.67 meters
  6MWD change from baseline, median: 5.23 meters
[1]; exposure interval ≤15 months, Pool 2, Efficacy Population including the outlier
  6MWD Baseline, Mean: 367.10 meters
[1]; [5]
  6MWD Baseline, Median: 373.75 meters
  6MWD change from baseline, median: 12.00 meters
[1]; exposure interval ≤15 months, last available post-baseline value − baseline, Pool 2, including the outlier
  6MWD change from baseline, mean: 17.13 meters
[1]; exposure ≤15 months (n=143)
  mean (SD) improvement in 6MWD: 17.1 (44.92) meters
[2]; Baseline, ITT, ERT-naïve Subjects excluding Subject 4005-2511
  PROMIS-Physical Function Short Form 20a total score Absolute Value, Median: 76.00
[2]; Baseline, ITT, ERT-naïve Subjects excluding Subject 4005-2511, score 20 to 100, higher = less impact
  PROMIS-Physical Function Short Form 20a total score Absolute Value, Mean: 74.65
[2]; ERT-experienced Population
  mean (SD) change in PROMIS-Physical Function total score from baseline to Week 52: 1.8 (7.18)
[2]; ERT-naïve excluding Subject 4005-2511
  mean (SD) change in PROMIS-Physical Function total score from baseline to Week 52: 2.5 (8.62)
[2]; ITT-LOCF, ERT-naïve Subjects excluding Subject 4005-2511
  Change in PROMIS-Physical Function total score baseline to Week 52, LS means (SE) from ANCOVA: 1.87 (1.917)
[2]; ITT-OBS excluding Subject 4005-2511 (overall)
  CHG to Week 52 in PROMIS-Physical Function total score, LS Mean: 2.2
[2]; ITT-OBS excluding Subject 4005-2511, ERT-naïve Subjects
  CHG to Week 52 in PROMIS-Physical Function total score, LS Mean: 2.6
[2]; ITT-OBS, ERT-experienced Subjects
  CHG to Week 52 in PROMIS-Physical Function total score, LS Mean: 2.0
[2]; [6]
  PROMIS-Physical Function Short Form 20a total score Absolute Value, Mean (SD): 66.19 (12.325)
  PROMIS-Physical Function Short Form 20a total score Absolute Value, Median: 66.00
  PROMIS-Physical Function Short Form 20a total score CHG, Mean (SD): 1.76 (7.179)
  PROMIS-Physical Function Short Form 20a total score CHG, Median: 0.50
[2]; [7]
  PROMIS-Physical Function Short Form 20a total score Absolute Value, Mean: 77.15
  PROMIS-Physical Function Short Form 20a total score Absolute Value, Median: 77.50
  PROMIS-Physical Function Short Form 20a total score CHG (change from baseline), Mean: 2.50
  PROMIS-Physical Function Short Form 20a total score CHG (change from baseline), Median: 0.00
[2]; [8]
  PROMIS-Physical Function Short Form 20a total score Absolute Value, Mean (SD): 68.80 (12.954)
  PROMIS-Physical Function Short Form 20a total score Absolute Value, Median: 68.00
  PROMIS-Physical Function Short Form 20a total score CHG, Mean (SD): 1.94 (7.498)
  PROMIS-Physical Function Short Form 20a total score CHG, Median: 0.00
[2]; ANCOVA, ITT-LOCF excluding Subject 4005-2511
  PROMIS-Physical Function Short Form 20a total score CHG, LS means (SE): 1.98 (0.921)
[2]; ANCOVA, ITT-LOCF excluding Subject 4005-2511, 2-sided p 0.276
  PROMIS-Physical Function Short Form 20a total score CHG, Difference of LS means (SE) (cipaglucosidase alfa/miglustat − alglucosidase alfa/placebo): 1.87 (1.706)
[2]; ANCOVA, ITT-LOCF, ERT-experienced Population
  PROMIS-Physical Function Short Form 20a total score CHG, LS means (SE): 1.90 (1.071)
[2]; ANCOVA, ITT-LOCF, ERT-experienced Population, 2-sided p 0.110
  PROMIS-Physical Function Short Form 20a total score CHG, Difference of LS means (SE) (cipaglucosidase alfa/miglustat − alglucosidase alfa/placebo): 3.14 (1.948)
[2]; cipaglucosidase alfa/miglustat − alglucosidase alfa/placebo, ITT-LOCF, ANCOVA, 2-sided p 0.426
  LS Mean Treatment Difference (SE), CHG to Week 52 in PROMIS-Physical Function total score: 1.37 (1.714)
[2]; cipaglucosidase alfa/miglustat − alglucosidase alfa/placebo, ITT-LOCF, ERT-naïve Subjects excluding Subject 4005-2511
  Change in PROMIS-Physical Function total score baseline to Week 52, Difference of LS means (SE) from ANCOVA: −5.09 (4.288)
[2]; cipaglucosidase alfa/miglustat − alglucosidase alfa/placebo, ITT-OBS excluding Subject 4005-2511 (overall)
  CHG to Week 52 in PROMIS-Physical Function total score, LS Mean Treatment Difference: 2.5
[2]; cipaglucosidase alfa/miglustat − alglucosidase alfa/placebo, ITT-OBS excluding Subject 4005-2511, ERT-naïve Subjects
  CHG to Week 52 in PROMIS-Physical Function total score, LS Mean Treatment Difference: −3.1

From patent publication US20260041744A1, “Methods for Treating Pompe Disease” (Amicus Therapeutics, Inc., priority 2022, published 2026)
